Measurements reported in PMC8185074, “Anchor extension: a structure-guided approach to design cyclic peptides targeting enzyme active sites” (Nature Communications, 2021).
Peptide text beside a SMILES is read from it.

Experiments:
Type in all cases: biochemical
HDAC8 = target: T1, HDAC8 (Homo sapiens, UniProt Q9BY41); experiment: HDAC8 inhibition, full IC50 measurement (Reaction Biology; fluorogenic p53 peptide RHKK(Ac)AMC); conditions: t1/t2 replicates
T1 construct: purchased Reaction Biology Corporation (assay run by the CRO)
T1 sequence (Q9BY41 1-377): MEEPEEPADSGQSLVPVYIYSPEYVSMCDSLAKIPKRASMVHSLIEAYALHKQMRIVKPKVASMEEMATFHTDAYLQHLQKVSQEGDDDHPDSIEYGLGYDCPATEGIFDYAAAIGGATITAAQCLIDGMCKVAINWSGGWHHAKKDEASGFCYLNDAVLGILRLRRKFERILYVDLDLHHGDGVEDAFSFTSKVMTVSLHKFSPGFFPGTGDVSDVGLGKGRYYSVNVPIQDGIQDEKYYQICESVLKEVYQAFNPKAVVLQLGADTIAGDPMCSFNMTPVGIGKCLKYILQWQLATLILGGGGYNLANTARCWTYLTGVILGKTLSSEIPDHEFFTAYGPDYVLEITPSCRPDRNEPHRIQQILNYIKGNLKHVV
Procedure, shortened: (§1)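 Deacetylation of 50 μM RHKK(Ac)AMC is measured after 1 h at 30 °C in pH 8.0 Tris buffer (1% DMSO, 1 mg/ml BSA). Developer ends the reaction; the post-plateau 360/460 nm signal is fitted to IC50, averaging replicate measurements.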

HDAC2 = target: T2, HDAC2 (Homo sapiens, UniProt Q92769); experiment: HDAC2 inhibition, full IC50 measurement (Reaction Biology; fluorogenic p53 peptide RHKK(Ac)AMC)
T2 construct: purchased Reaction Biology Corporation (assay run by the CRO)
Procedure, shortened: as §1

HDAC1 = target: T3, HDAC1 (Homo sapiens, UniProt Q13547); experiment: HDAC1 inhibition, full IC50 measurement (Reaction Biology; fluorogenic p53 peptide RHKK(Ac)AMC); conditions: t1/t2 replicates
T3 construct: purchased Reaction Biology Corporation (assay run by the CRO)
Procedure, shortened: as §1

[1] = peptide conc. 1.00E-05 M, listed as des4.1.0_t1
[2] = peptide conc. 1.00E-05 M, listed as des4.1.0_t2
[3] = peptide conc. 1.11E-06 M, listed as des4.1.0_t1
[4] = peptide conc. 1.11E-06 M, listed as des4.1.0_t2
[5] = peptide conc. 1.23E-07 M, listed as des4.1.0_t1
[6] = peptide conc. 1.23E-07 M, listed as des4.1.0_t2
[7] = peptide conc. 1.37E-08 M, listed as des4.1.0_t1
[8] = peptide conc. 1.37E-08 M, listed as des4.1.0_t2
[9] = peptide conc. 1.52E-09 M, listed as des4.1.0_t1
[10] = peptide conc. 1.52E-09 M, listed as des4.1.0_t2
[11] = peptide conc. 3.33E-06 M, listed as des4.1.0_t1
[12] = peptide conc. 3.33E-06 M, listed as des4.1.0_t2
[13] = peptide conc. 3.70E-07 M, listed as des4.1.0_t1
[14] = peptide conc. 3.70E-07 M, listed as des4.1.0_t2
[15] = peptide conc. 4.12E-08 M, listed as des4.1.0_t1
[16] = peptide conc. 4.12E-08 M, listed as des4.1.0_t2
[17] = peptide conc. 4.57E-09 M, listed as des4.1.0_t1
[18] = peptide conc. 4.57E-09 M, listed as des4.1.0_t2
[19] = peptide conc. 5.08E-10 M, listed as des4.1.0_t1
[20] = peptide conc. 5.08E-10 M, listed as des4.1.0_t2

T2 sequence (Q92769 whole entry): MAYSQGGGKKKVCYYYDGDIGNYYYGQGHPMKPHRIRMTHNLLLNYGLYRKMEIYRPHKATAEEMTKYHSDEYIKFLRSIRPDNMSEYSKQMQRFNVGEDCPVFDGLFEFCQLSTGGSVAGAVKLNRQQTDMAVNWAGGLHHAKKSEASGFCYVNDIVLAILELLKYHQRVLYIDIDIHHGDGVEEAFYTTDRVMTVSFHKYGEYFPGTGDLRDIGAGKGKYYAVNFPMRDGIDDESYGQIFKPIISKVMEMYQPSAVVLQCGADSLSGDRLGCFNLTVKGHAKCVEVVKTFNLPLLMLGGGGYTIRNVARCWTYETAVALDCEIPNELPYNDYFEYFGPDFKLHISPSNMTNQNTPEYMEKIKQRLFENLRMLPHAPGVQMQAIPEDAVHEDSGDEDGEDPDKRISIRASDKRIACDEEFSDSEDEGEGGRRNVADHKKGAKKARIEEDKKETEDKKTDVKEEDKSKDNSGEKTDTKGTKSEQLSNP
T3 sequence (Q13547 whole entry): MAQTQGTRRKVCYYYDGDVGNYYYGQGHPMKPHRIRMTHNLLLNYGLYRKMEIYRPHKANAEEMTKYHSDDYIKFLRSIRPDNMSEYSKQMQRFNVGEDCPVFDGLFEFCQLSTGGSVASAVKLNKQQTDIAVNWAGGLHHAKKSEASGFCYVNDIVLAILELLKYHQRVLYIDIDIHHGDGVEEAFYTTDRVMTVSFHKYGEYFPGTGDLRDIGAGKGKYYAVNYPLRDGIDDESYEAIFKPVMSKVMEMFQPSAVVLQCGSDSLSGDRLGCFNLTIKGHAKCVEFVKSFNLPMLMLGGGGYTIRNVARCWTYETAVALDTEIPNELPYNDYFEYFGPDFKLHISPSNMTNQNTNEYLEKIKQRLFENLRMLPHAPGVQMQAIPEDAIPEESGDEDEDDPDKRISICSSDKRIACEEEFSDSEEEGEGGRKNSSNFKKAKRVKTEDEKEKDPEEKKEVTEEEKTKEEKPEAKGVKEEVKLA

N=C(N)NCCC[C@@H]1NC(=O)[C@H](Cc2c[nH]c3ccccc23)NC(=O)[C@H](CC(=O)O)NC(=O)[C@@H](CO)NC(=O)[C@H](Cc2c[nH]c3ccccc23)NC(=O)[C@H](CCCCCS)NC(=O)[C@H](CCC(N)=O)NC1=O [des4.1.0, SHA-Trp-dSer-Asp-Trp-Arg-Gln] (HELM PEPTIDE1{D.W.R.Q.[O=C([C@H](CCCCCS)N[*:1])[*:2]].W.[dS]}$PEPTIDE1,PEPTIDE1,1:R1-7:R2$$$V2.0)
HDAC8 activity raw data (signal) (HDAC8; [1]): 100967
HDAC8 activity raw data (signal) (HDAC8; [2]): 38752
HDAC8 activity raw data (signal) (HDAC8; [3]): 234716
HDAC8 activity raw data (signal) (HDAC8; [4]): 226734
HDAC8 activity raw data (signal) (HDAC8; [5]): 803512
HDAC8 activity raw data (signal) (HDAC8; [6]): 713240
HDAC8 activity raw data (signal) (HDAC8; [7]): 943537
HDAC8 activity raw data (signal) (HDAC8; [8]): 964221
HDAC8 activity raw data (signal) (HDAC8; [9]): 948817
HDAC8 activity raw data (signal) (HDAC8; [10]): 953073
HDAC8 activity raw data (signal) (HDAC8; [11]): 100659
HDAC8 activity raw data (signal) (HDAC8; [12]): 171679
HDAC8 activity raw data (signal) (HDAC8; [13]): 597298
HDAC8 activity raw data (signal) (HDAC8; [14]): 553055
HDAC8 activity raw data (signal) (HDAC8; [15]): 940975
HDAC8 activity raw data (signal) (HDAC8; [16]): 825924
HDAC8 activity raw data (signal) (HDAC8; [17]): 958670
HDAC8 activity raw data (signal) (HDAC8; [18]): 869070
HDAC8 activity raw data (signal) (HDAC8; [19]): 1026116
HDAC8 activity raw data (signal) (HDAC8; [20]): 927553
HDAC2 activity raw data (signal) (HDAC2; Conc. 1.00E-05 M, t1): -10519
HDAC2 activity raw data (signal) (HDAC2; Conc. 1.00E-05 M, t2): -26565
HDAC2 activity raw data (signal) (HDAC2; Conc. 1.11E-06 M, t1): 79842
HDAC2 activity raw data (signal) (HDAC2; Conc. 1.11E-06 M, t2): 48499
HDAC2 activity raw data (signal) (HDAC2; Conc. 1.23E-07 M, t1): 872533
HDAC2 activity raw data (signal) (HDAC2; Conc. 1.23E-07 M, t2): 734242
HDAC2 activity raw data (signal) (HDAC2; Conc. 1.37E-08 M, t1): 1715554
HDAC2 activity raw data (signal) (HDAC2; Conc. 1.37E-08 M, t2): 1674658
HDAC2 activity raw data (signal) (HDAC2; Conc. 1.52E-09 M, t1): 1955635
HDAC2 activity raw data (signal) (HDAC2; Conc. 1.52E-09 M, t2): 1838943
HDAC2 activity raw data (signal) (HDAC2; Conc. 3.33E-06 M, t1): 20013
HDAC2 activity raw data (signal) (HDAC2; Conc. 3.33E-06 M, t2): 16353
HDAC2 activity raw data (signal) (HDAC2; Conc. 3.70E-07 M, t1): 220224
HDAC2 activity raw data (signal) (HDAC2; Conc. 3.70E-07 M, t2): 182542
HDAC2 activity raw data (signal) (HDAC2; Conc. 4.12E-08 M, t1): 1421192
HDAC2 activity raw data (signal) (HDAC2; Conc. 4.12E-08 M, t2): 1355422
HDAC2 activity raw data (signal) (HDAC2; Conc. 4.57E-09 M, t1): 1969255
HDAC2 activity raw data (signal) (HDAC2; Conc. 4.57E-09 M, t2): 1793366
HDAC2 activity raw data (signal) (HDAC2; Conc. 5.08E-10 M, t1): 1865278
HDAC2 activity raw data (signal) (HDAC2; Conc. 5.08E-10 M, t2): 1807628
HDAC1 activity raw data (signal) (HDAC1; [1]): 765
HDAC1 activity raw data (signal) (HDAC1; [2]): 43
HDAC1 activity raw data (signal) (HDAC1; [3]): 72647
HDAC1 activity raw data (signal) (HDAC1; [4]): 40074
HDAC1 activity raw data (signal) (HDAC1; [5]): 531723
HDAC1 activity raw data (signal) (HDAC1; [6]): 406309
HDAC1 activity raw data (signal) (HDAC1; [7]): 925044
HDAC1 activity raw data (signal) (HDAC1; [8]): 865901
HDAC1 activity raw data (signal) (HDAC1; [9]): 1099796
HDAC1 activity raw data (signal) (HDAC1; [10]): 1072226
HDAC1 activity raw data (signal) (HDAC1; [11]): 17702
HDAC1 activity raw data (signal) (HDAC1; [12]): 11850
HDAC1 activity raw data (signal) (HDAC1; [13]): 193534
HDAC1 activity raw data (signal) (HDAC1; [14]): 155666
HDAC1 activity raw data (signal) (HDAC1; [15]): 733473
HDAC1 activity raw data (signal) (HDAC1; [16]): 658176
HDAC1 activity raw data (signal) (HDAC1; [17]): 1015864
HDAC1 activity raw data (signal) (HDAC1; [18]): 988230
HDAC1 activity raw data (signal) (HDAC1; [19]): 1225387
HDAC1 activity raw data (signal) (HDAC1; [20]): 1041994
